Series [1] concerns rat isolated thoracic aorta (endothelium-intact aortic rings), PE-induced contractions. In words: Effect of flavonols on phenylephrine-induced vasoconstriction (organ bath). It counts as cell-based. As to conditions: FIG. 1a, compared with diOHF, qualitative. An excerpt: (§1) Vascular activity can be tested in standard organ bath assays using rat isolated thoracic aorta. The synthesized flavonols were first assayed for their ability to inhibit contractions induced by phenylephrine (PE), since it has been previously shown that flavonols can act as functional antagonists of PE. Next, the efficacy of the various flavonols would be determined in a direct relaxation assay. […] It was expected that the flavonols should reduce the magnitude of PE-induced contractions in endothelium-intact aortic rings, thus reducing the maximum response (Rmax) for PE-induced contractions.
(§2) Male Sprague-Dawley rats (200-400 g) were euthanised by exposure to 80% CO2, 20% O2, and their chests opened to isolate the thoracic aortae. After the removal of superficial connective tissues, the aorta was cut into ring segments, of approximately 2-3 mm in length. The aortic rings were then mounted between two stainless steel wires, one of which was linked to an isometric force transducer connected to a chart recorder, and the other end anchored to a glass rod submerged in a standard 10 mL organ bath. The organ bath was filled with Krebs-bicarbonate solution [composition (mM): NaCl, 118.0; KCl, 4.7; KH2PO4, 1.2; MgSO4.7H2O, 1.2; glucose, 5.0; NaHCO3, 25.0; CaCl2.2H2O, 2.5]. The bath medium was maintained at 37° C., pH 7.4 and continuously aerated with 95% O2, 5% CO2.
Aortic rings were equilibrated for 1 h at a resting tension of 1 g, then were precontracted with an isotonic, high potassium physiological salt solution (KPSS) in which all of the NaCl of the normal Krebs solution was replaced with KCl (122.7 mM), so as to achieve maximal contraction. The solution was then washed out and replaced with normal Krebs solution. […]
Aortic rings were incubated with a β-adrenoceptor antagonist, propranolol (10^−5 M), and either vehicle or flavonol (10^−4-10^−5 M) for 15 min before cumulative doses of phenylephrine (10^−9-10^−4.5 M) were added to generate a concentration-response curve to phenylephrine. Contraction responses were expressed as a percentage of KPSS-induced tension.

The subject of series [2] is superoxide (NADPH oxidase-driven) in isolated rat aortic rings. As to the kind of experiment: Lucigenin-enhanced chemiluminescence assay of superoxide in isolated aortic rings. It counts as cell-based. As to conditions: rat aortic rings incubated with NADPH; FIG. 2; compared with diOHF; qualitative. Here is the method:
Since the vascular activity of the synthesized flavonols was attenuated, it was of great interest to test these compounds for antioxidant activity. Antioxidant activity can be assessed in a tissue-based lucigenin-enhanced chemiluminescence assay. Isolated rat aortic rings were incubated with NADPH and the various flavonols. NADPH, a substrate for NADPH oxidase in the vasculature, increases superoxide production. Superoxide that is produced reacts with lucigenin, leading to the emission of photons, which can be quantified to give a measure of superoxide levels.
Superoxide concentrations were measured in isolated aortic rings by lucigenin-enhanced chemiluminescence. Prior to assaying, the aortic rings were incubated at 37° C. for 1 h in Krebs-EPES buffer containing DETCA (3×10^−5 M), which inactivates superoxide dismutase, NADPH (10^−4 M) and either vehicle, succinamic acid-substituted flavonol (10^−4 or 10^−5 M) or diOHF (10^−4 or 10^−5 M). Assay solutions consisting of lucigenin (5×10^−6 M), NADPH (10^−4 M) and either vehicle (DMSO), succinamic acid-substituted flavonol (10^−4 or 10^−5 M) or 3′,4′-dihydroxyflavonol (diOHF, 10^−4 or 10^−5 M), as a positive control, were prepared in Krebs-HEPES buffer [composition (mM): NaCl, 99.0; KCl, 4.7; KH2PO4, 1.0; MgSO4.7H2O, 1.2; glucose, 11.0; NaHCO3, 25.0; CaCl2.2H2O, 2.5; Na-HEPES, 20.0]. 300 μL aliquots of the assay solution were placed into separate wells on a 96-well Optiplate, which was loaded into a TopCount single photon counter (Packard Bioscience) to determine the background emission (12 cycles). After background counting was completed, one aortic ring was added per well, and photon emission was counted (12 cycles). Superoxide levels were reported as a percentage of photon emission for +NADPH control. At the conclusion of the assay, the aortic rings were dried for 48 h at 80° C. for normalization of superoxide production to dry tissue weight.
The results are expressed as the mean±s.e. mean and n indicates the number of experiments (rats). […]

Series [3] concerns rat isolated thoracic aorta (aortic rings). As to the kind of experiment: Vasorelaxation (direct relaxation assay) in precontracted aortic rings. As to conditions: for vasorelaxation activity in the relaxation assay: FIG. 1b, qualitative; for Emax: read-out: Rmax (%) maximum response in the relaxation assay. It counts as cell-based.
Description: as §1, §2
Aortic rings were equilibrated for 1 h at a resting tension of 1 g, then were precontracted with an isotonic, high potassium physiological salt solution (KPSS) in which all of the NaCl of the normal Krebs solution was replaced with KCl (122.7 mM), so as to achieve maximal contraction. The solution was then washed out and replaced with normal Krebs solution. After re-equilibration, the rings were submaximally contracted with phenylephrine (PE, 10^−8-10^−7 M) and endothelial integrity was tested by a single dose of acetylcholine (Ach, 10^−5 M). Only rings that responded to Ach (≧90% relaxation) were judged endothelium intact and were used in the subsequent experiments. The aortic rings were then re-equilibrated (15 min) before the subsequent experiment.
Aortic rings were precontracted submaximally with phenylephrine (10^−8-10^−7 M) and the thromboxane mimetic, 9,11-dideoxy-9α,11α-epoxymethano-prostaglandin F2α (U46619, 10^−10-10^−9 M) to approximately 50% of KPSS-induced contraction. After stabilization of the contraction, cumulative doses of the flavonol or vehicle (10^−10-10^−4 M) were added to generate a concentration-response curve. Relaxant responses were expressed as a percentage of the precontraction tension.
The results are expressed as the mean±s.e. mean and n indicates the number of experiments (rats). Relaxation concentration-response curves for diOHF were computer fitted to a sigmoidal curve using non-linear regression (Prism version 4) to enable calculation of pEC50 of the flavonols. […] Maximum relaxation responses were compared using a one way analysis of variance (ANOVA) with post-hoc multiple comparison using Newman-Keuls test. Superoxide levels were compared using a one way analysis of variance (ANOVA) with post hoc multiple comparison using Dunnett's test.

Series [4] in a line: Solubility of succinamic acid flavonols in 0.1 M Na2CO3 solution. It counts as physicochemical. As to conditions: for maximum concentrations attained: in 0.1 M Na2CO3 solution; for solubility in comparison with the unmodified moiety: qualitative. The method, then: Acetylcholine perchlorate was obtained from BDH Chemicals (Poole, Dorset, England). Phenylephrine and propranolol was purchased from Sigma-Aldrich Pty. Ltd. (Castle Hill, NSW, Australia). DiOHF was purchased from Indofine Chemical Co. Inc. (Belle Mead, N.J., U.S.A.). All other flavonols were synthesized in this study. […] was purchased from Cayman Chemical (Ann Arbor, Mich., U.S.A.). All chemicals were dissolved in distilled water, except the following. DiOHF was dissolved in 10% dimethyl sulphoxide (DMSO), 90% methanol, with subsequent dilutions in 50% methanol (10^−3 M), and distilled water (10^−4-10^−7 M). Succinamic acid-substituted flavonols were dissolved in 0.1 M Na2CO3 as a stock solution (B and C at 10^−1 and D at 10^−2 M), and further diluted in distilled water as required.

[5] abbreviates: rat aortic rings precontracted with phenylephrine and U46619, percentage of precontraction tension, mean ± s.e. mean.

Entries after “also recorded” stand apart in the source; their conditions may differ. Like-named read-outs stand apart in the source and are kept apart here.

In the case of `O=C(O)CCC(=O)Nc1ccc2oc(-c3ccccc3)c(O)c(=O)c2c1` [B, 6-(Hydroxycarbonylethylcarbonylamino)flavonol], the “inhibition of PE-induced contractions (vascular activity)” value (from here on “inhibition of PE-induced contractions”) in series [1] is given as “less effective than diOHF”. Moreover, the “antioxidant activity (superoxide levels)” value in series [2] is on record as “moderate to good antioxidant activity”. The “vasorelaxation activity in the relaxation assay” value (from here on “vasorelaxation activity”) in series [3] was “weak vasorelaxation activity”. The Emax in series [3] (setting [5]) came out at 47 ± 2%. Besides, in series [4], the maximum concentrations attained was 10^−1 M and the “solubility in comparison with the unmodified moiety” value (“solubility in comparison” below) is “improved solubility”.

Take `O=C(O)CCC(=O)Nc1ccc2oc(-c3ccc(O)c(O)c3)c(O)c(=O)c2c1` [D, 3′,4′-Dihydroxy-6-(hydroxycarbonylethylcarbonylamino)flavonol]: the “inhibition of PE-induced contractions” value in series [1] is “less effective than diOHF; also recorded: vascular activity was completely abolished”. Moreover, the “antioxidant activity (superoxide levels)” value in series [2] is reported as “moderate to good antioxidant activity; also recorded: superoxide levels were substantially reduced”. Further, in series [3], the “vasorelaxation activity” value is on record as “slight contractions were observed at high concentrations”. Moreover, the Emax in series [3] (setting [5]) was -25 ± 3%. In series [4], the maximum concentrations attained is recorded as 10^−2 M and the “solubility in comparison” value is reported as “improved solubility”.

Turning to `O=C(O)CCC(=O)Nc1ccc2oc(-c3ccc(O)cc3)c(O)c(=O)c2c1` [C, 4′-Hydroxy-6-(hydroxycarbonylethylcarbonylamino)flavonol], the “inhibition of PE-induced contractions” value in series [1] is given as “less effective than diOHF”. Besides, the “antioxidant activity (superoxide levels)” value in series [2] is reported as “little effect”. Besides, in series [3], the “vasorelaxation activity” value was “weak vasorelaxation activity”. Moreover, in series [3] (setting [5]), the Emax is 80 ± 5%. Further, in series [4], the maximum concentrations attained is 10^−1 M and the “solubility in comparison” value is “improved solubility”.

With `O=c1c(O)c(-c2ccc(O)c(O)c2)oc2ccccc12` [diOHF, 3′,4′-dihydroxyflavonol, reference compound], the Emax in series [3] (Rattus norvegicus) was 105 ± 2%. Also, in series [3] (Rattus norvegicus, read-out: pEC50 (relaxation) (converted)), the EC50 was 4.68 µM.
